In assay [1] the target is T1, Lysine-α-ketoglutarate reductase (bifunctional lysine-α-ketoglutarate reductase/saccharopine dehydrogenase) (Mus musculus, UniProt Q99K67).
T1 construct: gene Aass; native bifunctional enzyme, partially purified from liver (15 000 x g supernatant, Blue Trisacryl column)
T1 sequence (Q99K67 28-926): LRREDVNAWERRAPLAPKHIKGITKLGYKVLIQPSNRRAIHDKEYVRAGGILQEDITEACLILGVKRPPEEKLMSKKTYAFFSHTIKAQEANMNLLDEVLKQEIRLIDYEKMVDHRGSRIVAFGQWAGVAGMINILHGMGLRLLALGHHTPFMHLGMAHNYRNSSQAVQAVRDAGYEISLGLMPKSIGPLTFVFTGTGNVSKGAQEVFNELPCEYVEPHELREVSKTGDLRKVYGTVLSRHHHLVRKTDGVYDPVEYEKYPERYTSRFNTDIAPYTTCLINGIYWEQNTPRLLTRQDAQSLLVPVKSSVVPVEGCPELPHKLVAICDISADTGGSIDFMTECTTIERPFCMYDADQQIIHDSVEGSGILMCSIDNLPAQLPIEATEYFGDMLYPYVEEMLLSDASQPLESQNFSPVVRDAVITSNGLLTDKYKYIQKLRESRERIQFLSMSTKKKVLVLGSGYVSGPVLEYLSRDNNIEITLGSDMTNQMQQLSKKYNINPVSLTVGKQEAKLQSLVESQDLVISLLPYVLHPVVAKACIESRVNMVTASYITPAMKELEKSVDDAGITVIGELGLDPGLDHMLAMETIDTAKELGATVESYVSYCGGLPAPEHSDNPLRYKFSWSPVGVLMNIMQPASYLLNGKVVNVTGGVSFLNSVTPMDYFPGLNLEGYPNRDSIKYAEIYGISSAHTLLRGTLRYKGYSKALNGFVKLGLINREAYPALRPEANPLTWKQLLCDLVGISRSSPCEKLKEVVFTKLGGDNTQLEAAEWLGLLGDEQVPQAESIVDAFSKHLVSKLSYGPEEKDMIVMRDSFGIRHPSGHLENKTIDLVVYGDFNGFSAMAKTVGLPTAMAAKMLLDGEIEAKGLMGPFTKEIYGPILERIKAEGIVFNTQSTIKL
Kind of assay: spectrophotometric enzyme assay (NADPH), partially purified native liver enzyme. It counts as biochemical. As to conditions: 25 mM Hepes pH 8.0, 30°C, 0.15 mM NADPH, 1 mM dithiothreitol, 10 mM lysine, 2 mM α-ketoglutarate.

Assay [2] deals with T1, Lysine-α-ketoglutarate reductase (bifunctional lysine-α-ketoglutarate reductase/saccharopine dehydrogenase). The assay is described as above. Format: biochemical.

As to `O=C(O)CC[C@@H](O)C(=O)O` [D-2-hydroxyglutarate], the “spectrophotometric enzyme assay (NADPH), partially purified native liver enzyme” value in assay [1] is on record as “almost no inhibition was observed with D-2-hydroxyglutarate”.

`O=C(O)CC[C@H](O)C(=O)O` [L-2-hydroxyglutarate] came in with a Ki in assay [2] of 700 µM.

The record behind these values is publication PMC4357467, “A Mouse Model of L-2-Hydroxyglutaric Aciduria, a Disorder of Metabolite Repair” (PLoS ONE, 2015).
